Laboratory results as given in paper PMC9231011, “Irreversible Antagonists for the Adenosine A2B Receptor” (Molecules, 2022).

Experiments:
[1] = biological target: T1, human A1AR (Homo sapiens, UniProt P30542); assay: Competitive radioligand binding vs [3H]CCPA; conditions: for Ki: apparent Ki for irreversibly binding ligands, three independent experiments, read-out: A1AR vs. Radioligand [3H]CCPA Ki ± SEM
T1 construct: purchased Perkin Elmer ES-010-M400UA
T1 sequence (P30542 1-326): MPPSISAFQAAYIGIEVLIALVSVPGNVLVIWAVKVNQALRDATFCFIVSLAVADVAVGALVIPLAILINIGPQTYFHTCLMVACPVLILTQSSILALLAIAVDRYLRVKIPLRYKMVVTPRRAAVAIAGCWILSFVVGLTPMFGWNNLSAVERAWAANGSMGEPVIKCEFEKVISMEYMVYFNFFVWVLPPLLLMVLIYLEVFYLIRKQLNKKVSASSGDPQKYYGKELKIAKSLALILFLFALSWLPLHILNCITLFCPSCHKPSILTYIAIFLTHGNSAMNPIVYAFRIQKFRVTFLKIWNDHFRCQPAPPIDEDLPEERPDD
Excerpt: (§1) The potentially irreversible xanthine derivatives were investigated for their binding affinity at human A2BARs and for their selectivity versus the other human AR subtypes, A1, A2A, and A3, by competitive radioligand binding experiments.
(§2) The human A2AAR, the mutant human A2BAR (K269^7.32L), and the human A3AR were transiently expressed in FreeStyle^TM CHO-S cells using the transfection reagent polyethylenimine (PEI) at a ratio of 1:3 to DNA according to the manufacturer’s guideline. pcDNA3.1(+) was used as the transfection vector containing the cDNA for either the wt ARs or the K269^7.32L mutant A2BAR that was prepared by site-directed mutagenesis with the following primer: forward […], reverse […]. CHO-S cells were grown in FreeStyle^TM CHO Expression Medium supplemented with 8 mM L-glutamine before use and split to 0.5 mio. cells per mL the day before transfection. Twenty-four hours after transfection, cells were spun down by centrifugation for 15 min at 500× g. Cells were disrupted by resuspension in 5 mM tris(hydroxymethyl)aminomethane buffer (Tris, pH 7.4) containing 2 mM ethyl-ene¬diaminetetraacetic acid (EDTA) with subsequent homogenization using an Ultra-Turrax homogenizer. The cell suspension was centrifuged for 10 min at 1000× g and the obtained supernatant was pelleted by centrifugation for 60 min at 48,000× g. The supernatant was discarded and the pellet washed with 50 mM Tris (pH 7.4). After centrifugation for at least 30 min at 48,000× g, the pellet was resuspended in 50 mM Tris (pH 7.4), aliquoted and stored at −80 °C for further use. All centrifugation steps were carried out at 4 °C. Membrane preparations of the human wt A1AR and the human wt A2BAR were purchased from Perkin Elmer (Perkin-Elmer, Waltham, MA, USA) (catalogue numbers ES-010-M400UA and ES-013-M400UA).
(§3) Binding experiments were performed using 50 mM Tris buffer (pH 7.4) in a total volume of 400 µL for the A1AR, A2AAR, A3AR, and 1000 µL for the A2BAR. Initial screening was carried out in two independent experiments at 1 µM. Competition of compounds versus [^3H]CCPA (A1AR, final concentration 1 nM), [^3H]MSX-2 (A2AAR, final concentration 1 nM), [^3H]PSB-603 (A2BAR, final concentration 0.3 nM) and [^3H]PSB-11 (A3AR, final concentration 1 nM) was investigated. An amount of 7.5–25 µg of total protein per well was employed, incubated with 2 U of adenosine deaminase per mL beforehand. Non-specific binding was determined in the presence of 10 µM of 2-chloroadenosine, 10 µM of CGS 15943, 10 µM of 8-cyclopently-1,3-dipropylxanthine or 100 µM of (R)-N^6-phenylisopropyadenosine for A1-, A2A-, A2B- and A3ARs, respectively. Competition association experiments (at 25 °C) were performed in the same way but the protein was added delayed at indicated time points and the cell membranes were harvested after 1 min. Incubation was terminated by rapid filtration through GF/B glass fiber filters (Whatman) using a 48-well harvester (Brandel) after 90 (A1AR), 30 (A2AAR), 75 (A2BAR), and 45 min (A3AR) of incubation, respectively. Filters were pre-incubated with 0.3% (w/v) of PEI for 30–60 min in case of the A2AAR assay. Filters were rinsed three times with ice-cold 50 mM Tris, pH 7.4 (supplemented with 0.1% (w/v) bovine serum albumin for the A2BAR) and transferred into scintillation vials. Filters were then incubated with 2.5 mL of scintillation cocktail (ProSafe FC plus) for at least 6 h. Subsequently, radioactivity was determined using a liquid scintillation counter (Tricarb 2810TR, Perkin Elmer).

[2] = biological target: T2, human A3AR (Homo sapiens, UniProt P0DMS8); assay: Competitive radioligand binding vs [3H]PSB-11; conditions: for Ki: three independent experiments, read-out: A3AR vs. Radioligand [3H]PSB-11 Ki ± SEM
T2 construct: expressed in transfected cells; host or cells: FreeStyle CHO-S cells, pcDNA3.1(+), transient
T2 sequence (P0DMS8 1-318): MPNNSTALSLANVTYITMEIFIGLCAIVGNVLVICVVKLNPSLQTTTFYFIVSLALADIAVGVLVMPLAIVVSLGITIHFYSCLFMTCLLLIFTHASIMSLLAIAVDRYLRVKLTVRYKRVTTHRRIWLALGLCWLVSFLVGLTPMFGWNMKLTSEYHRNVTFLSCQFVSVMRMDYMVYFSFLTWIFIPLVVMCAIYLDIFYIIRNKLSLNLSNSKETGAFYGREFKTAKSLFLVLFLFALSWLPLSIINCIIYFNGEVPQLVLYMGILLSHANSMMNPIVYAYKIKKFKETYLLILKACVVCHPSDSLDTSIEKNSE
Excerpt: as §1, §2, §3

SMILES: CCCn1c(=O)[nH]c2nc(-c3ccc(S(=O)(=O)F)cc3)[nH]c2c1=O [6a, 4-(2,6-Dioxo-1-propyl-2,3,6,7-tetrahydro-1H-purin-8-yl)benzenesulfonyl fluoride]
- Ki [1]: 406 ± 194 nM
- A3AR vs. Radioligand [3H]PSB-11 % inhibition at 1 µM [2]: 27%
- Ki [2]: > 1000 nM

SMILES: CCCn1c(=O)c2[nH]c(-c3ccc(S(=O)(=O)F)cc3)nc2n(C)c1=O [6b, 4-(3-Methyl-2,6-dioxo-1-propyl-2,3,6,7-tetrahydro-1H-purin-8-yl)benzenesulfonyl fluoride]
- Ki [1]: 293 ± 92 nM
- A3AR vs. Radioligand [3H]PSB-11 % inhibition at 1 µM [2]: 13%
- Ki [2]: > 1000 nM

SMILES: CCCn1c(=O)c2[nH]c(-c3ccc(S(=O)(=O)F)cc3)nc2n(C2CC2)c1=O [6c, 4-(3-Cyclopropyl-2,6-dioxo-1-propyl-2,3,6,7-tetrahydro-1H-purin-8-yl)benzenesulfonyl fluoride]
- Ki [1]: 41.5 ± 2.8 nM
- A3AR vs. Radioligand [3H]PSB-11 % inhibition at 1 µM [2]: 33%
- Ki [2]: > 1000 nM

SMILES: CCCn1c(=O)[nH]c2nc(-c3ccc(S(=O)(=O)N4CCC(NC(=O)c5ccc(S(=O)(=O)F)cc5)CC4)cc3)[nH]c2c1=O [compound 12, 4-((1-((4-(2,6-Dioxo-1-propyl-2,3,6,7-tetrahydro-1H-purin-8-yl)phenyl)sulfonyl)piperidin-4-yl)carbamoyl)benzenesulfonyl fluoride]
- A1AR vs. Radioligand [3H]CCPA % inhibition at 1 µM ([1]; 1 µM): 22%
- Ki [1]: > 1000 nM
- A3AR vs. Radioligand [3H]PSB-11 % inhibition at 1 µM [2]: 15%
- Ki [2]: > 1000 nM
